From patent US9693556B2, “Herbicidal pyridazinone derivatives” (SYNGENTA LIMITED, priority 2011, dated 2017)

Legend:
Type in all cases: in vivo
[1] = system: Ipomoea hederacea (IPOHE); test: Post-emergence herbicidal glasshouse test on Ipomoea hederacea; conditions: post-emergence; 1000 g/h; evaluated after 13 days
Outline: (§1)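 Steps: sow seeds in standard soil; cultivate 1 d (pre-) or 8 d (post-emergence) at 24/16 °C, 14 h light, 65% humidity; spray 1000 g/h in acetone/water plus Tween 20; grow on, watering twice daily; score percentage damage after 13 d.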

[2] = system: Echinochloa crus-galli (ECHCG); test: Pre-emergence herbicidal glasshouse test on Echinochloa crus-galli; conditions: pre-emergence; 1000 g/h; evaluated after 13 days
Outline: as §1

[3] = system: Alopecurus myosuroides (ALOMY); test: Pre-emergence herbicidal glasshouse test on Alopecurus myosuroides; conditions: pre-emergence; 1000 g/h; evaluated after 13 days
Outline: as §1

Solanum nigrum (SOLNI) [4] = test: Pre-emergence herbicidal glasshouse test on Solanum nigrum; conditions: pre-emergence; 1000 g/h; evaluated after 13 days
Outline: as §1

[5] = system: Amaranthus retoflexus (AMARE); test: Pre-emergence herbicidal glasshouse test on Amaranthus retoflexus; conditions: pre-emergence; 1000 g/h; evaluated after 13 days
Outline: as §1

[6] = system: Alopecurus myosuroides (ALOMY); test: Post-emergence herbicidal glasshouse test on Alopecurus myosuroides; conditions: post-emergence; 1000 g/h; evaluated after 13 days
Outline: as §1

Setaria faberi (SETFA) [7] = test: Post-emergence herbicidal glasshouse test on Setaria faberi; conditions: post-emergence; 1000 g/h; evaluated after 13 days
Outline: as §1

Solanum nigrum (SOLNI) [8] = test: Post-emergence herbicidal glasshouse test on Solanum nigrum; conditions: post-emergence; 1000 g/h; evaluated after 13 days
Outline: as §1

[9] = system: Amaranthus retoflexus (AMARE); test: Post-emergence herbicidal glasshouse test on Amaranthus retoflexus; conditions: post-emergence; 1000 g/h; evaluated after 13 days
Outline: as §1

[10] = system: Ipomoea hederacea (IPOHE); test: Pre-emergence herbicidal glasshouse test on Ipomoea hederacea; conditions: pre-emergence; 1000 g/h; evaluated after 13 days
Outline: as §1

[11] = system: Echinochloa crus-galli (ECHCG); test: Post-emergence herbicidal glasshouse test on Echinochloa crus-galli; conditions: post-emergence; 1000 g/h; evaluated after 13 days
Outline: as §1

Setaria faberi (SETFA) [12] = test: Pre-emergence herbicidal glasshouse test on Setaria faberi; conditions: pre-emergence; 1000 g/h; evaluated after 13 days
Outline: as §1

Compound | POST Application IPOHE herbicidal damage (five point scale) [1] | PRE Application ECHCG herbicidal damage (five point scale) [2] | PRE Application ALOMY herbicidal damage (five point scale) [3] | PRE Application SOLNI herbicidal damage (five point scale) (Solanum nigrum (SOLNI) [4]) | PRE Application AMARE herbicidal damage (five point scale) [5] | POST Application ALOMY herbicidal damage (five point scale) [6] | POST Application SETFA herbicidal damage (five point scale) (Setaria faberi (SETFA) [7]) | POST Application SOLNI herbicidal damage (five point scale) (Solanum nigrum (SOLNI) [8]) | POST Application AMARE herbicidal damage (five point scale) [9] | PRE Application IPOHE herbicidal damage (five point scale) [10] | POST Application ECHCG herbicidal damage (five point scale) [11] | PRE Application SETFA herbicidal damage (five point scale) (Setaria faberi (SETFA) [12])
Cn1ncc(-c2ccc(Cl)cc2C(F)(F)F)c(O)c1=O [Compound 1.113] | 5 (5=80-100% damage) | 1 (1=0-19% damage) | 1 (1=0-19% damage) | 4 (4=60-79% damage) | 5 (5=80-100% damage) | 2 (2=20-39% damage) | 3 (3=40-59% damage) | 5 (5=80-100% damage) | 5 (5=80-100% damage) | 2 (2=20-39% damage) | 2 (2=20-39% damage) | 1 (1=0-19% damage)
Cn1ncc(-c2ccccc2Cl)c(O)c1=O [Compound 1.114] | 1 (1=0-19% damage) | 1 (1=0-19% damage) | 1 (1=0-19% damage) | 1 (1=0-19% damage) | 1 (1=0-19% damage) | 1 (1=0-19% damage) | 1 (1=0-19% damage) | 1 (1=0-19% damage) | 1 (1=0-19% damage) | 1 (1=0-19% damage) | 1 (1=0-19% damage) | 1 (1=0-19% damage)
Cn1ncc(-c2ccccc2C(F)(F)F)c(O)c1=O [Compound 1.116] | 4 (4=60-79% damage) | 1 (1=0-19% damage) | 2 (2=20-39% damage) | 3 (3=40-59% damage) | 5 (5=80-100% damage) | 1 (1=0-19% damage) | 2 (2=20-39% damage) | 5 (5=80-100% damage) | 4 (4=60-79% damage) | 1 (1=0-19% damage) | 2 (2=20-39% damage) | 2 (2=20-39% damage)
Cn1ncc(-c2c(Cl)cccc2Cl)c(O)c1=O [Compound 1.118] | 2 (2=20-39% damage) | 1 (1=0-19% damage) | 1 (1=0-19% damage) | 1 (1=0-19% damage) | 1 (1=0-19% damage) | 1 (1=0-19% damage) | 1 (1=0-19% damage) | 3 (3=40-59% damage) | 4 (4=60-79% damage) | 1 (1=0-19% damage) | 2 (2=20-39% damage) | 1 (1=0-19% damage)
Cn1ncc(-c2ccc(S(C)(=O)=O)cc2S(C)(=O)=O)c(O)c1=O [Compound 1.119] | 5 (5=80-100% damage) | 5 (5=80-100% damage) | 5 (5=80-100% damage) | 5 (5=80-100% damage) | 5 (5=80-100% damage) | 5 (5=80-100% damage) | 5 (5=80-100% damage) | 5 (5=80-100% damage) | 5 (5=80-100% damage) | 5 (5=80-100% damage) | 5 (5=80-100% damage) | 5 (5=80-100% damage)
Cc1c(-c2cnn(CC3CC3)c(=O)c2O)ccc(S(C)(=O)=O)c1C1=NOCC1 [Compound 1.120] | 5 (5=80-100% damage) | 5 (5=80-100% damage) | 3 (3=40-59% damage) | 4 (4=60-79% damage) | 5 (5=80-100% damage) | 5 (5=80-100% damage) | 5 (5=80-100% damage) | 5 (5=80-100% damage) | 5 (5=80-100% damage) | 4 (4=60-79% damage) | 5 (5=80-100% damage) | 4 (4=60-79% damage)
CCCn1ncc(-c2ccc(S(C)(=O)=O)c(C3=NOCC3)c2Cl)c(O)c1=O [Compound 1.125, 5-[2-chloro-3-(4,5-dihydroisoxazol-3-yl)-4-methylsulfonyl-phenyl]-4-hydroxy-2-propyl-pyridazin-3-one] | 5 (5=80-100% damage) | 5 (5=80-100% damage) | 4 (4=60-79% damage) | 4 (4=60-79% damage) | 5 (5=80-100% damage) | 5 (5=80-100% damage) | 5 (5=80-100% damage) | 5 (5=80-100% damage) | 5 (5=80-100% damage) | 1 (1=0-19% damage) | 5 (5=80-100% damage) | 5 (5=80-100% damage)
CCCn1ncc(-c2c(Cl)ccc(Cl)c2Cl)c(O)c1=O [Compound 1.128] | 3 (3=40-59% damage) | 1 (1=0-19% damage) | 1 (1=0-19% damage) | 1 (1=0-19% damage) | 1 (1=0-19% damage) | 1 (1=0-19% damage) | 2 (2=20-39% damage) | 4 (4=60-79% damage) | 1 (1=0-19% damage) | 1 (1=0-19% damage) | 1 (1=0-19% damage) | 1 (1=0-19% damage)
CCCn1ncc(-c2c(Cl)cccc2Cl)c(O)c1=O [Compound 1.129] | 2 (2=20-39% damage) | 1 (1=0-19% damage) | 1 (1=0-19% damage) | 1 (1=0-19% damage) | 1 (1=0-19% damage) | 1 (1=0-19% damage) | 2 (2=20-39% damage) | 3 (3=40-59% damage) | 3 (3=40-59% damage) | 1 (1=0-19% damage) | 2 (2=20-39% damage) | 1 (1=0-19% damage)
